Reference: PMC10744032, “Regioselective and Stereoselective Synthesis of Parthenolide Analogs by Acyl Nitroso-Ene Reaction and Their Biological Evaluation against Mycobacterium tuberculosis” (International Journal of Molecular Sciences, 2023)
Values after ≈ are worked out from the molar mass of the structure shown. Like-named read-outs stand apart in the source and are kept apart here.

Legend:
[1] = Cytotoxicity by live imaging (Hoechst 33342 / propidium iodide); format: cell-based; details: mouse
Method: The cytotoxicity of the compounds to BALB/3T3 cells was determined using live imaging following both Hoechst 33342 and propidium iodide staining. Briefly, BALB/3T3 cells were seeded in a 384-well plate and 24 h later, the compounds were added (0, 12.5, 25, 50, and 100 µM) to the culture medium, as well as Hoechst 33342 and propidium iodide (PI). Then, 24 h and 48 h after the compounds were added, live imaging was performed using an In Cell Analyzer 6000 (STP GE Healthcare, Glascow, UK). The cytotoxicity was defined based on the ratio of the population of dead or dying cells (propidium iodide staining) to the total cell population (Hoechst staining), as determined using Columbus software 2.9.1 (PerkinElmer Informatics, WA, USA). The compounds were tested in triplicate. Carfilzomib (500, 250, 140, and 60 nM) was used as the positive control in this assay.

[2] = Kinetic solubility in PBS by LC-MS/MS; format: physicochemical; details: for solubility at 24 h: kinetic from dmso stock; for fold higher solubility in PBS compared to parthenolide: relative to parthenolide
Method: The kinetic solubility was determined using LC–MS/MS analysis in PBS at pH 7.4. Briefly, a 10 mM 100% DMSO solution of the compound was diluted 50-fold either in PBS at pH 7.4 (in triplicate) or in DMSO in polypropylene tubes (n = 3 for PBS and n = 6 for DMSO). The tubes were gently shaken for 24 h at 21 °C. Then, the three PBS tubes and three of the six DMSO tubes were centrifuged for 5 min at 4000 rpm and filtered over 0.45 μm filters (Millex-LH Millipore). Then, 40 μL of each solution was diluted in 160 μL of MeCN and 40 µL of Milli-Q water and transferred to matrix tubes for the LC–MS/MS analysis. The solubility was determined according to the following formula: Solubility (μM) = (AUC (filtered PBS)/AUC (not filtered DMSO)) × 200. The test was validated if (AUC (not filtered DMSO) − AUC (filtered DMSO))/AUC (not filtered DMSO) ≤ 10%.

[3] = tested on: Staphylococcus aureus (SH1000); assay: microbe, parasite or virus in culture; format: cell-based; details: Staphylococcus aureus; 5 h incubation, resazurin readout; tested 300 to 2.3 µM; read-out: MIC90 S. aureus (REMA)
[4] = tested on: M. tuberculosis H37Rv expressing GFP (H37Rv::pJKD6); assay: microbe, parasite or virus in culture; format: cell-based, Mycobacterium tuberculosis; details: Mycobacterium tuberculosis, H37RV, 168 h; read-out: MIC98 M. tuberculosis (GFP)
[5] = tested on: M. tuberculosis H37Rv; assay: microbe, parasite or virus in culture; format: cell-based, Mycobacterium tuberculosis; details: Mycobacterium tuberculosis, H37RV, 168 h, 7 days incubation, resazurin readout, tested 300 to 2.3 µM, read-out: MIC90 M. tuberculosis (REMA)
[6] = BALB/3T3 cells, 0, 12.5, 25, 50, 100 µM, imaging at 24 h and 48 h, read-out: Cytotoxicity Balb3T3 CC50
[7] = aqueous buffer, kinetic solubility, PBS pH 7.4, 24 h at 21 °C, from 10 mM DMSO solution diluted 50-fold, read-out: Solubility

Compound	CC50 [1]	solubility at 24 h ([2]; 21 °C, pH 7.4, aqueous buffer)	MIC90 [3]	MIC [4]	MIC90 [5]	CC50 [1, 6]	solubility at 24 h [2, 7]	fold higher solubility in PBS compared to parthenolide [2]
C=C1CC[C@H]2C(=C)C(=O)O[C@@H]2[C@@H]2O[C@]2(C)CC[C@H]1N(O)C(=O)Nc1ccccc1 [Compound 4, 1-hydroxy-1-[(1S,2S,4R,7R,11S)-4-methyl-8,12-dimethylene-13-oxo-3,14-dioxatricyclo[9.3.0.02,4]tetradecan-7-yl]-3-phenyl-urea]	25 µM	186 µM (≈ 74.1 µg/mL)	> 300 µM	9.4 to 19 µM (≈ 3.75 to 7.57 µg/mL)	19 to 38 µM (≈ 7.57 to 15.1 µg/mL)			
C=C1CC[C@H]2C(=C)C(=O)O[C@@H]2[C@@H]2O[C@]2(C)CC/C1=N/O [Compound 23, (1S,2S,4R,7Z,11S)-7-hydroxyimino-4-methyl-8,12-dimethylene-3,14-dioxatricyclo[9.3.0.02,4] tetradecan-13-one]		186 µM (≈ 51.6 µg/mL)	> 300 µM					
C=C1CC[C@H]2C(=C)C(=O)O[C@@H]2[C@@H]2O[C@]2(C)CC[C@H]1N(O)C(=O)Oc1ccc2c(c1)OCO2 [Compound 20, 1,3-benzodioxol-5-yl-N-hydroxy-N-[(1S,2S,4R,7R,11S)-4-methyl-8,12-dimethylene-13-oxo-3,14-dioxatricyclo[9.3.0.02,4]tetradecan-7-yl]carbamate]				37.5 to 75 µM (≈ 16.6 to 33.3 µg/mL)	75 µM (≈ 33.3 µg/mL)	> 12.5 µM	182 µM (≈ 80.7 µg/mL)	
C=C1CC[C@H]2C(=C)C(=O)O[C@@H]2[C@@H]2O[C@]2(C)CC[C@H]1N(O)C(=O)OC1CCOCC1 [Compound 22, Tetrahydropyran-4-yl-N-hydroxy-N-[(1S,2S,4R,7R,11S)-4-methyl-8,12-dimethylene-13-oxo-3,14-dioxatricyclo[9.3.0.02,4]tetradecan-7-yl]carbamate]	> 50 µM	193 µM (≈ 78.6 µg/mL)		38 µM (≈ 15.5 µg/mL)	75 µM (≈ 30.6 µg/mL)			
C=C1CC[C@H]2C(=C)C(=O)O[C@@H]2[C@@H]2O[C@]2(C)CC[C@H]1N(O)C(=O)Nc1ccc(OC)cc1 [Compound 7, 1-hydroxy-3-(4-methoxyphenyl)-1-[(1S,2S,4R,7R,11S)-4-methyl-8,12-dimethylene-13-oxo-3,14-dioxatricyclo[9.3.0.02,4]tetradecan-7-yl]urea]	25 µM	184 µM (≈ 78.8 µg/mL)		19 µM (≈ 8.14 µg/mL)	19 µM (≈ 8.14 µg/mL)			
C=C1CC[C@H]2C(=C)C(=O)O[C@@H]2[C@@H]2O[C@]2(C)CC[C@H]1N(O)C(=O)NCCCOCC [Compound 11, 3-(3-ethoxypropyl)-1-hydroxy-1-[(1S,2S,4R,7R,11S)-4-methyl-8,12-dimethylene-13-oxo-3,14-dioxatricyclo[9.3.0.02,4]tetradecan-7-yl]urea]	> 100 µM	197 µM (≈ 80.5 µg/mL)		150 µM (≈ 61.3 µg/mL)	150 µM (≈ 61.3 µg/mL)			
C=C1CC[C@H]2C(=C)C(=O)O[C@@H]2[C@@H]2O[C@]2(C)CC[C@H]1N(O)C(=O)Nc1ccc2c(c1)OCO2 [Compound 10, 3-(1,3-benzodioxol-5-yl)-1-hydroxy-1-[(1S,2S,4R,7R,11S)-4-methyl-8,12-dimethylene-13-oxo-3,14-dioxatricyclo[9.3.0.02,4]tetradecan-7-yl]urea]	12.5 µM	182 µM (≈ 80.5 µg/mL)		19 µM (≈ 8.41 µg/mL)	38 µM (≈ 16.8 µg/mL)			
C=C1CC[C@H]2C(=C)C(=O)O[C@@H]2[C@@H]2O[C@]2(C)CC[C@H]1N(O)C(=O)OCC(C)C [Compound 18, Isobutyl-N-hydroxy-N-[(1S,2S,4R,7R,11S)-4-methyl-8,12-dimethylene-13-oxo-3,14-dioxatricyclo[9.3.0.02,4]tetradecan-7-yl]carbamate]	50 µM	190 µM (≈ 72.1 µg/mL)		19 µM (≈ 7.21 µg/mL)	38 µM (≈ 14.4 µg/mL)			
C=C1CC[C@H]2C(=C)C(=O)O[C@@H]2[C@@H]2O[C@]2(C)CC[C@H]1N(O)C(N)=O [Compound 9, 1-hydroxy-1-[(1S,2S,4R,7R,11S)-4-methyl-8,12-dimethylene-13-oxo-3,14-dioxatricyclo[9.3.0.02,4]tetradecan-7-yl]urea]	> 100 µM	> 200 µM		75 to 150 µM (≈ 24.2 to 48.4 µg/mL)	~150 µM (≈ 48.4 µg/mL)			1.5 fold
C=C1CC[C@H]2C(=C)C(=O)O[C@@H]2[C@@H]2O[C@]2(C)CC[C@H]1N(O)C(=O)OCC(Cl)(Cl)Cl [Compound 15, 2,2,2-trichloroethyl-N-hydroxy-N-[(1S,2S,4R,7R,11S)-4-methyl-8,12-dimethylene-13-oxo-3,14-dioxatricyclo[9.3.0.02,4]tetradecan-7-yl]carbamate]	12.5 µM	184 µM (≈ 83.7 µg/mL)	> 300 µM	19 µM (≈ 8.64 µg/mL)	38 µM (≈ 17.3 µg/mL)			
C=C1CC[C@H]2C(=C)C(=O)O[C@@H]2[C@@H]2O[C@]2(C)CC[C@H]1N(O)C(=O)Oc1ccc(F)cc1 [Compound 16, (4-fluorophenyl)-N-hydroxy-N-[(1S,2S,4R,7R,11S)-4-methyl-8,12-dimethylene-13-oxo-3,14-dioxatricyclo[9.3.0.02,4]tetradecan-7-yl]carbamate]			> 300 µM	38 to 75 µM (≈ 15.9 to 31.3 µg/mL)	75 µM (≈ 31.3 µg/mL)	25 µM	182 µM (≈ 76 µg/mL)	
CO[C@H]1/C=C/O[C@@]2(C)Oc3c(C)c(O)c4c(O)c(c(/C=N/N5CCN(C)CC5)c(O)c4c3C2=O)NC(=O)/C(C)=C\C=C\[C@H](C)[C@H](O)[C@@H](C)[C@@H](O)[C@@H](C)[C@H](OC(C)=O)[C@@H]1C [Rifampicin, reference compound]			< 2.3 µM	< 2.3 µM	< 2.3 µM			
C=C1CC[C@H]2C(=C)C(=O)O[C@@H]2[C@@H]2O[C@]2(C)CC[C@H]1N(O)C(=O)Oc1ccccc1 [Compound 17, Phenyl-N-hydroxy-N-[(1S,2S,4R,7R,11S)-4-methyl-8,12-dimethylene-13-oxo-3,14-dioxatricyclo[9.3.0.02,4]tetradecan-7-yl]carbamate]				38 µM (≈ 15.2 µg/mL)	38 µM (≈ 15.2 µg/mL)	12.5 µM	189 µM (≈ 75.5 µg/mL)	
C/C1=C\CC[C@@]2(C)O[C@H]2[C@H]2OC(=O)C(C)[C@@H]2CC1 (stereo partly drawn) [Compound 26, (1S,2S,4R,7E,11S)-4,8,12-trimethyl-3,14-dioxatricyclo[9.3.0.02,4]tetradec-7-en-13-one]				300 µM (≈ 75.1 µg/mL)	300 µM (≈ 75.1 µg/mL)			
C=C1CC[C@H]2C(=C)C(=O)O[C@@H]2[C@@H]2O[C@]2(C)CC[C@H]1N(O)C(=O)OCCOC [Compound 21, 2-methoxyethyl-N-hydroxy-N-[(1S,2S,4R,7R,11S)-4-methyl-8,12-dimethylene-13-oxo-3,14-dioxatricyclo[9.3.0.02,4]tetradecan-7-yl]carbamate]	100 µM	> 200 µM		150 to 300 µM (≈ 57.2 to 114 µg/mL)	150 µM (≈ 57.2 µg/mL)			
C=C1CC[C@H]2C(=C)C(=O)O[C@@H]2[C@@H]2O[C@]2(C)CC[C@H]1N(O)C(=O)OCC [Compound 19, Ethyl-N-hydroxy-N-[(1S,2S,4R,7R,11S)-4-methyl-8,12-dimethylene-13-oxo-3,14-dioxatricyclo[9.3.0.02,4]tetradecan-7-yl]carbamate]	> 12.5 µM	198 µM (≈ 69.6 µg/mL)		75 µM (≈ 26.4 µg/mL)	75 µM (≈ 26.4 µg/mL)			
C=C1CC[C@H]2C(=C)C(=O)O[C@@H]2[C@@H]2O[C@]2(C)CC[C@H]1N(O)C(=O)Nc1ccc(F)cc1 [Compound 8, 3-(4-fluorophenyl)-1-hydroxy-1-[(1S,2S,4R,7R,11S)-4-methyl-8,12-dimethylene-13-oxo-3,14-dioxatricyclo[9.3.0.02,4]tetradecan-7-yl]urea]	> 25 µM	188 µM (≈ 78.3 µg/mL)		19 µM (≈ 7.91 µg/mL)	19 µM (≈ 7.91 µg/mL)			1.3 fold
